Assay [1] deals with A2780 cells. In words: Wound healing migration assay. Format: cell-based, human. The note with it: A2780, sub-inhibitory concentrations (0.5 or 1.0 µM), 24 and 48 h. The protocol:
The antimigratory properties of compound 9g were investigated using the in vitro wound healing assay against the ovarian cancer cell line A2780.
The effect of compound 9g on the migration of A2780 cells was assessed using a wound-healing assay. A2780 cells were trypsinized and seeded into specialized wound assay chambers (ibidi GmbH, Martinsried, Germany) at a density of 80,000 cells/insert and the plate was incubated under standard conditions to allow proper attachment. After incubation, the inserts were carefully removed and the wells were washed twice with PBS to eliminate non-adherent cells and debris. The cells were subsequently treated with […] at 0.5 or 1.0 µM in fresh medium containing 2% FBS. The migration of cells toward the wound site was visualized using a phase-contrast inverted microscope (Nikon Instruments Europe, Amstelveen, The Netherlands) and images were captured with a CCD camera (QImaging MicroPublisher Color RTV5.0 Teledyne Photometrics, Tucson, AZ, USA). The percentage of cell migration was calculated at different time intervals (0, 24, and 48 h) by measuring the cell-free area in treated samples against untreated controls using ImageJ software 1.54d (National Institutes of Health, Bethesda, MD, USA). The experiments were conducted twice with at least three parallel samples.

Assay [2] deals with 60 human tumor cell lines (NCI60). More on the design: method as in PMID 39063170. The note with it: previous work; cited from earlier work.

On to `CC[C@]12C=CCN3CC[C@@]4(c5ccc(OC)cc5N(C)[C@H]4[C@@](O)(C(=O)OC)[C@@H]1OC(=O)CCC[P+](c1ccccc1)(c1ccccc1)c1ccccn1)[C@@H]32` [9g], for which, in assay [1], the cell migration entry was “concentration- and duration-dependent reduction in cell migration”.

For `CCC12C=CCN3CC[C@@]4(c5ccc(OC)cc5N(C)[C@H]4[C@@](O)(C(=O)OC)[C@@H]1OC(C)=O)[C@@H]32` (some centres unmarked) [compound 2, vindoline], the “antiproliferative effects (in words)” value in assay [2] is “do not exert antiproliferative effects”.

(Values after PMC12028158, “Synthesis and In Vitro Evaluation of the Anticancer Effect of Novel Phosphonium Vindoline Derivatives” (International Journal of Molecular Sciences, 2025).)
